Reference: publication PMC12467740, “Synthesis, Characterization, and Screening Anticancer—Antibiofilm Activities of Theophylline Derivatives Containing CF3/OCF3 Moiety” (Biology, 2025)

Legend:
Assay type in all cases: cell-based
Enterococcus faecalis = experiment: Well plate biofilm formation assay (crystal violet); conditions: over the concentration range given per compound (Table 4)
Description: (§1) The well plate assay was utilized to test the effectiveness of compounds in inhibiting biofilms made by microorganisms. An amount of 100 μL of Brucella broth (Remel, Lenexa, KS, USA) containing 1% and 20% glucose (Biolife, Milan, Italy), were dispensed into the test wells. In the next step, 100 μL of compounds ranging from 0.244 to 1000 μg/mL were poured into the wells. […] Then, 0.5 McFarland standard in physiological saline from each microorganism strain were prepared and 20 μL of the prepared suspension was added to the wells. A column of the microplate containing 100 μL Brucella broth served as a negative control and another column of the microplate containing 100 μL Brucella with 20 μL of each microorganism added served as a growth control. As positive controls, ciprofloxacin was applied against bacterial strains at a concentration range of 0.03125-64 μg/mL, and fluconazole was used against Candida albicans at a concentration range of 0.3125-640 μg/mL. Plates were left to incubate at 36.5 °C for a day. The plates were emptied and then washed three times with 300 μL of deionized water. The wells were left to dry for half an hour. The next step was staining with 0.1% (w/v) violet dye ([…]), cleaning three times with deionized water, and drying at room temperature. The crystal violet adhering to the wall of the wells was dissolved with 95% ethanol, and the optical density was measured at 570 nm. The test was run two times, and the mean value was calculated. Biofilm preventing (%) = {(ODb - ODc)/ODb} × 100.

Escherichia coli = experiment: as above; conditions: over the concentration range given per compound (Table 4)
Description: as §1

Staphylococcus aureus = experiment: as above; conditions: over the concentration range given per compound (Table 4); 1c and 1e at 1000 µg/mL
Description: as §1

Pseudomonas aeruginosa = experiment: as above; conditions: over the concentration range given per compound (Table 4)
Description: as §1

[1] = test system: Enterococcus faecalis (ATCC 29212); experiment: Broth microdilution MIC; conditions: ciprofloxacin 0.03125–64 µg/mL
Description: (§2) The antibacterial activities of the compounds were determined using the broth microdilution method, as per the advice of international standards. […] Standard bacterial strains Staphylococcus aureus (ATCC 29213), Enterococcus faecalis (ATCC 29212), Escherichia coli (ATCC 25922), Pseudomonas aeruginosa (ATCC 27853), and yeast Candida albicans (ATCC 10231), were previously stored at −80 °C then revived at room temperature. Microorganisms were inoculated using overnight broth cultures. Stock solutions of the samples studied at a concentration of 1000 µg/mL were prepared with dimethyl sulfoxide (DMSO). An amount of 100 µL of Mueller Hinton Broth (Liofilchem, Italy) were dispensed into all wells of 96-well microplates. […] Serial dilutions of 0.00048–1% DMSO were made into a column of the microplate to determine its antimicrobial activity. 0.5 McFarland standard in physiological saline from each microorganism strains were prepared and 20 µL of the prepared suspension was added to the wells. An amount of 100 µL Mueller Hinton Broth in a column of the microplate served as a negative control and another column of the microplate containing 100 µL of Mueller Hinton Broth with 20 µL of each microorganism added served as a growth control. As positive controls, ciprofloxacin was applied against bacterial strains at a concentration range of 0.03125–64 µg/mL, and fluconazole was used against Candida albicans at a concentration range of 0.3125–640 µg/mL. The plates were covered with parafilm, incubated at 36.5 °C in an aerobic environment for 24 h. After incubation, the optical density was measured at 620 nm. The first concentration without microbial growth was determined as MIC and experiments were repeated twice.

[2] = test system: Staphylococcus aureus (ATCC 29213); experiment: Broth microdilution MIC; conditions: ciprofloxacin 0.03125–64 µg/mL
Description: as §2

[3] = test system: Escherichia coli (ATCC 25922); experiment: Broth microdilution MIC; conditions: ciprofloxacin 0.03125–64 µg/mL
Description: as §2

[4] = test system: Pseudomonas aeruginosa (ATCC 27853); experiment: Broth microdilution MIC; conditions: ciprofloxacin 0.03125–64 µg/mL
Description: as §2

Candida albicans = experiment: Well plate biofilm formation assay (crystal violet); conditions: over the concentration range given per compound (Table 4)
Description: as §1

[5] = test system: Candida albicans (ATCC 10231); experiment: Broth microdilution MIC; conditions: fluconazole 0.3125–640 µg/mL
Description: as §2

Compound: O=C(O)c1cn(C2CC2)c2cc(N3CCNCC3)c(F)cc2c1=O [Ciprofloxacin, ciprofloxacin, reference compound]
- Antibiofilm activity Enterococcus faecalis (Enterococcus faecalis): 18.11%
- Antibiofilm activity Escherichia coli (Escherichia coli): 36.67%
- Antibiofilm activity Staphylococcus aureus (Staphylococcus aureus): 50.56%
- Antibiofilm activity Pseudomonas aeruginosa (Pseudomonas aeruginosa): 35.79%
- Microbial growth in positive control wells [1]: no microbial growth was observed
- Microbial growth in positive control wells [2]: no microbial growth was observed
- Microbial growth in positive control wells [3]: no microbial growth was observed
- Microbial growth in positive control wells [4]: no microbial growth was observed

Compound: OC(Cn1cncn1)(Cn1cncn1)c1ccc(F)cc1F [Fluconazole, fluconazole, reference compound]
- Antibiofilm activity Candida albicans (Candida albicans): 29.10%
- Microbial growth in positive control wells [5]: no microbial growth was observed
